Test results from patent US20250186456A1, “PYRIMIDINE-FUSED CYCLIC COMPOUND AND PREPARATION METHOD AND USE THEREOF” (Genfleet Therapeutics (Shanghai) Inc., priority 2021, published 2025).
Read-outs that look alike come from different tables or passages of the source.

Legend:
Format in all cases: cell-based, human
[1] = tested on: AsPC-1 cells (KRAS G12D mutation); assay: Cell proliferation inhibition assay, 3D, CellTiter-Glo 3D, AsPC-1; conditions: AsPC-1 3D sphere model, 5 days incubation
Outline: (§1)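 Spheroids (800 AsPC-1 or 400 AGS cells/well; RPMI-1640 or F-12K with 10% FBS) formed overnight, then were dosed on day 2 with a 3.16-fold series at 0.1% DMSO. After 5 days, viability was read by CellTiter-Glo 3D luminescence, and IC50 came from four-parameter fits of inhibition versus DMSO control and medium blank.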

AGS cells (KRAS G12D) = assay: Cell proliferation inhibition assay, 3D, CellTiter-Glo 3D, AGS; conditions: AGS 3D sphere model, 5 days incubation
Outline: as §1

[2] = tested on: p-ERK in AGS cells (KRAS G12D mutation); assay: Cell p-ERK assay (HTRF, Advance ERK phospho-T202/Y204 kit); conditions: AGS cells, 3 hours incubation with compound, HTRF, read-out: AGS p-ERK IC50
Outline: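 Phospho-ERK (T202/Y204) measured by HTRF in lysates of human gastric AGS cells carrying KRAS G12D, after 3 h compound exposure at 0.1% DMSO over a 3.16-fold series. Percent inhibition relative to DMSO control and lysis-only blank; four-parameter curve fitting gave IC50.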

Row | Compound | IC50 ([1]; Homo sapiens, ASPC1, 120 h) | IC50 (AGS cells (KRAS G12D); Homo sapiens, 120 h) | IC50 ([2]; Homo sapiens) | IC50 [1] | IC50 (AGS cells (KRAS G12D)) | IC50 [2]
1 | C#Cc1cccc2cccc(-c3nc4c5c(nc(OCC67CC(=C)CN6C[C@H](F)C7)nc5c3F)N3C[C@H]5CC[C@H](N5)[C@H]3[C@H](C)O4)c12 (stereo partly drawn) [Example Z678, (5S,5aS,6S,9R)-2-(8-ethynylnaphthalen-1-yl)-1-fluoro-12-(((2R)-2-fluoro-6-methylenetetrahydro-1H-pyrrolizin-7a (5H)-yl)methoxy)-5-methyl-5a,6,7,8,9,10-hexahydro-5H-4-oxa-3,10a, 11, 13,14-pentaaza-6,9-methanonaphtho[1,8-ab]heptalene] | 73.5 nM | 100 nM | 12.4 nM |  |  | 
2 | C#Cc1c(F)ccc2cccc(-c3nc4c5c(nc(OCC67CC(=C)CN6C[C@H](F)C7)nc5c3F)N3CC5CCC(N5)C3C(CF)O4)c12 (stereo partly drawn) [Example Z679, 2-(8-Ethynyl-7-Fluoronaphthalen-1-Yl)-1-Fluoro-12-(((2R)-2-Fluoro-6-Methylenetetrahydro-1H-Pyrrolizin-7a (5H)-Yl)Methoxy)-5-(Fluoromethyl)-5a,6,7,8,9,10-Hexahydro-5H-4-Oxa-3.10a,11,13,14-Pentaaza-6,9-Methanonaphtho[1,8-Ab]Heptalene] |  |  |  | 352 nM | 393 nM | 117 nM
3 | C#Cc1c(F)ccc2cccc(-c3nc4c5c(nc(OCC67CC(OC)CN6CCC7=C)nc5c3F)N3C[C@H]5CC[C@H](N5)[C@H]3[C@H](C)O4)c12 (stereo partly drawn) [Example Z681, (5S,5aS,6S,9R)-2-(8-Ethynyl-7-Fluoronaphthalen-1-Yl)˜1-Fluoro-12-((6-Methoxy-1-Methylenetetrahydro-1H-Pyrrolizin-7a (5H)-Yl)Methoxy)-5-Methyl-5a,6,7,8,9,10-Hexahydro-5H-4-Oxa-3,10a,11,13,14-Pentaaza-6,9-Methanonaphtho[1,8-Ab]Heptalene] |  |  |  | 37.9 nM | 13 nM | 5.73 nM
4 | C=C1CN2C[C@H](F)CC2(COc2nc3c4c(nc(-c5cccc(Cl)c5C(F)(F)F)c(F)c4n2)O[C@@H](C)[C@@H]2[C@@H]4CC[C@H](CN32)N4)C1 (stereo partly drawn) [Example Z682, (5S,5aS,6S,9R)-2-(3-chloro-2-(trifluoromethyl)phenyl)-1-fluoro-12-(((2R)-2-fluoro-6-methylenetetrahydro-1H-pyrrolizin-7a (5H)-yl)methoxy)-5-methyl-5a,6,7,8,9,10-hexahydro-5H-4-oxa-3,10a, 11,13,14-pentaaza-6,9-methanonaphtho[1,8-ab]heptalene] | 237 nM | 146 nM | 82 nM |  |  | 
5 | C#Cc1c(F)ccc2cccc(-c3nc4c5c(nc(OCC67CC(=C)CN6CCC7CO)nc5c3F)N3C[C@H]5CC[C@H](N5)[C@H]3[C@H](C)O4)c12 (stereo partly drawn) [Example Z683, (7a-((((5S,5aS,6S,9R)-2-(8-ethynyl-7-fluoronaphthalen-1-yl)-1-fluoro-5-methyl-5a,6,7,8,9,10-hexahydro-5H-4-oxa-3,10a,11,13,14-pentaaza-6,9-methanonaphtho[1,8-ab]heptalen-12-yl)oxy)methyl)-6-methylenehexahydro-1H-pyrrolizin-1-yl)methanol] | 79 nM | 22.7 nM | 5.84 nM |  |  | 
6 | C#Cc1cccc2cncc(-c3nc4c5c(nc(OCC67CC(=C)CN6C[C@H](F)C7)nc5c3F)N3C[C@H]5CC[C@H](N5)[C@H]3[C@H](C)O4)c12 (stereo partly drawn) [Example Z684, (5S,5aS,6S,9R)-2-(5-ethynylisoquinolin-4-yl)-1-fluoro-12-(((2R)-2-fluoro-6-methylenetetrahydro-1H-pyrrolizin-7a (5H)-yl)methoxy)-5-methyl-5a,6,7,8,9,10-hexahydro-5H-4-oxa-3,10a, 11,13,14-pentaaza-6,9-methanonaphtho[1,8-ab]heptalene] | 326 nM | 341 nM | 57.5 nM |  |  | 
7 | C#Cc1cccc2cc(N)nc(-c3nc4c5c(nc(OCC67CC(=C)CN6C[C@H](F)C7)nc5c3F)N3C[C@H]5CC[C@H](N5)[C@H]3[C@H](C)O4)c12 (stereo partly drawn) [Example Z685, 8-Ethynyl-1-((5S,5aS,68,9R)-1-Fluoro-12-(((2R)-2-Fluoro-6-Methylenetetrahydro-1H-Pyrrolizin-7a (5H)-Yl)Methoxy)-5-Methyl-5a,6,7,8,9,10-Hexahydro-5H-4-Oxa-3,10a,11,13,14-Pentaaza-6,9-Methanonaphtho[1,8-Ab]Heptalen-2-Yl) Isoquinolin-3-Amine] | 258 nM | 145 nM | 30.3 nM |  |  | 
8 | C#Cc1c(F)ccc2cccc(-c3nc4c5c(nc(OCC(=C)CN6CCOCC6)nc5c3F)N3C[C@H]5CC[C@H](N5)[C@H]3[C@H](C)O4)c12 [Example Z687, (5S,5aS,6S,9R)-2-(8-ethynyl-7-fluoronaphthalen-1-yl)-1-fluoro-5-methyl-12-((2-(morpholinomethyl)allyl)oxy)-5a,6,7,8,9,10-hexahydro-5H-4-oxa-3,10a,11,13,14-pentaaza-6,9-methanonaphtho[1,8-ab]heptalene] | 513 nM | 392 nM | 193 nM |  |  | 
9 | C#Cc1c(F)ccc2cccc(-c3nc4c5c(nc(OCC67C[C@@H](OC)CN6CCC7=C)nc5c3F)N3C[C@H]5CC[C@H](N5)[C@H]3[C@H](C)O4)c12 (stereo partly drawn) [Example Z688, (5S,5aS,6S,9R)-2-(8-Ethynyl-7-Fluoronaphthalen-1-Yl)-1-Fluoro-12-(((6R)-6-Methoxy-1-Methylenetetrahydro-1H-Pyrrolizin-7a (5H)-Yl)Methoxy)-5-Methyl-5a,6,7,8,9,10-Hexahydro-5H-4-Oxa-3,10a,11,13,14-Pentaaza-6,9-Methanonaphtho[1,8-Ab]Heptalene] | 39.2 nM | 20 nM | 8.77 nM |  |  | 
10 | C#Cc1c(F)ccc2cccc(-c3nc4c5c(nc(OCC67CC(=C)CN6C[C@H](OC)C7)nc5c3F)N3C[C@H]5CC[C@H](N5)[C@H]3[C@H](C)O4)c12 (stereo partly drawn) [Example Z691, (5S,5aS,6S,9R)-2-(8-Ethynyl-7-Fluoronaphthalen-1-Yl)-1-Fluoro-12-(((2R)-2-Methoxy-6-Methylenetetrahydro-1H-Pyrrolizin-7a (5H)-Yl)Methoxy)-5-Methyl-5a,6,7,8,9,10-Hexahydro-5H-4-Oxa-3,10a,11,13,14-Pentaaza-6,9-Methanonaphtho[1,8-Ab]Heptalene] | 87.9 nM | 54.6 nM | 14.2 nM |  |  | 
11 | C#Cc1c(F)ccc2cccc(-c3nc4c5c(nc(OCC67CC(=C)CN6C[C@@H](OC)C7)nc5c3F)N3C[C@H]5CC[C@H](N5)[C@H]3[C@H](C)O4)c12 (stereo partly drawn) [Example Z692, (5S,5aS,6S,9R)-2-(8-ethynyl-7-fluoronaphthalen-1-yl)-1-fluoro-12-(((2S)-2-methoxy-6-methylenetetrahydro-1H-pyrrolizin-7a (5H)-yl)methoxy)-5-methyl-5a,6,7,8,9,10-hexahydro-5H-4-oxa-3,10a,11,13,14-pentaaza-6,9-methanonaphtho[1,8-ab]heptalene] | 290 nM | 378 nM | 188 nM |  |  | 
12 | C#Cc1c(F)ccc2cccc(-c3nc4c5c(nc(OCC6(CN7CCOCC7)CC6)nc5c3F)N3C[C@H]5CC[C@H](N5)[C@H]3[C@H](C)O4)c12 [Example Z693, (58,5aS,6S,9R)-2-(8-ethynyl-7-fluoronaphthalen-1-yl)-1-fluoro-5-methyl-12-((1-(morpholinomethyl)cyclopropyl)methoxy)-5a,6,7,8,9,10-hexahydro-5H-4-oxa-3,10a, 11, 13,14-pentaaza-6,9-methanonaphtho[1,8-ab]heptalene] | 31.1 nM | 27.3 nM | 9.23 nM |  |  | 
13 | C#Cc1c(F)ccc2cccc(-c3nc4c5c(nc(OCC6(CN7CCC(=C)C7)CC6)nc5c3F)N3C[C@H]5CC[C@H](N5)[C@H]3[C@H](C)O4)c12 [Example Z698, (5S,5aS,6S,9R)-2-(8-Ethynyl-7-Fluoronaphthalen-1-Yl)-1-Fluoro-5-Methyl-12-((1-((3-Methylenepyrrolidin-1-Yl)Methyl)Cyclopropyl)Methoxy)-5a,6,7,8,9,10-Hexahydro-5H-4-Oxa-3,10a,11,13,14-Pentaaza-6,9-Methanonaphtho[1,8-Ab]Heptalene] | 49.3 nM | 18.8 nM | 21.7 nM |  |  | 
14 | C#Cc1cccc2cc(N)cc(-c3nc4c5c(nc(OCC67CC(=C)CN6C[C@H](F)C7)nc5c3F)N3C[C@H]5CC[C@H](N5)[C@H]3[C@H](C)O4)c12 (stereo partly drawn) [Example Z699, 5-ethynyl-4-((5S,5aS,6S,9R)-1-fluoro-12-(((2R)-2-fluoro-6-methylenetetrahydro-1H-pyrrolizin-7a (5H)-yl)methoxy)-5-methyl-5a,6,7,8,9,10-hexahydro-5H-4-oxa-3,10a, 11,13,14-pentaaza-6,9-methanonaphtho[1,8-ab]heptalen-2-yl) naphthalen-2-amine] | 2.37 nM | 1.98 nM | 0.44 nM |  |  | 
15 | C#Cc1cccc2cc(N)cc(-c3nc4c5c(nc(OCC6(CN7CCOCC7)CC6)nc5c3F)N3C[C@H]5CC[C@H](N5)[C@H]3[C@H](C)O4)c12 [Example Z700, 5-Ethynyl-4-((5S,5aS,6S,9R)-1-Fluoro-5-Methyl-12-((1-(Morpholinomethyl)Cyclopropyl)Methoxy)-5a,6,7,8,9,10-Hexahydro-5H-4-Oxa-3,10a, 11,13,14-Pentaaza-6,9-Methanonaphtho[1,8-Ab]Heptalen-2-Yl) Naphthalen-2-Amine] | 2.14 nM | 1.91 nM | 0.39 nM |  |  | 
